According to PMC6009938, “The use of dimethylsulfoxide as a solvent in enzyme inhibition studies: the case of aldose reductase” (Journal of Enzyme Inhibition and Medicinal Chemistry, 2017):

Assays:
Format in all cases: biochemical
[1] = biological target: T1, human recombinant AR (hAR) (Homo sapiens, UniProt P15121); experiment: Aldose reductase assay, L-idose reduction (NADPH oxidation at 340 nm); conditions: for Inhibition model / Ki / Ki′: substrate L-idose
T1 construct: made in house
Experimental: (§1) One unit of enzyme activity is the amount that catalyses the conversion of 1 µmol of substrate/min in the above assay conditions. These assay conditions were also adopted to assess the effectiveness of inhibitors when L-idose, trans-4-hydroxy-2,3-nonenal (HNE), or 3-glutathionyl-4-hydroxynonenal (GSHNE) was used as a substrate instead of GAL.
(§2) The human recombinant AR (hAR) was expressed and purified as previously described. […] The purified enzyme was stored at −80 °C in a 10 mM sodium phosphate buffer pH 7.0 containing 2 mM DTT and 30% (w/v) glycerol. Before use, the enzyme was extensively dialysed against a 10 mM sodium phosphate buffer pH 7.0.

[2] = biological target: T1, human recombinant AR (hAR); experiment: Aldose reductase assay, HNE reduction (NADPH oxidation at 340 nm); conditions: for Inhibition model / Ki′: substrate HNE
Experimental: (§3) The AR activity was determined at 37 °C as previously described, following the decrease in absorbance at 340 nm due to NADPH oxidation (ε 340 = 6.22 mM^−1·cm^−1) through a Biochrom Libra S60 spectrophotometer (Biochrom, Cambridge, United Kingdom). The standard assay mixture contained a 0.25 M sodium phosphate buffer pH 6.8, 0.18 mM NADPH, 0.4 M ammonium sulphate, 0.5 mM EDTA and 4.7 mM GAL. One unit of enzyme activity is the amount that catalyses the conversion of 1 µmol of substrate/min in the above assay conditions. These assay conditions were also adopted to assess the effectiveness of inhibitors when L-idose, trans-4-hydroxy-2,3-nonenal (HNE), or 3-glutathionyl-4-hydroxynonenal (GSHNE) was used as a substrate instead of GAL.
as §2
The protein concentration was determined according to Bradford[35], using BSA as a standard protein. HNE was prepared as previously described. GSHNE was prepared as previously described[37] by incubation of GSH and HNE, monitoring the time course of GSH consumption. The residual GSH was determined as previously described.

[3] = biological target: T1, human recombinant AR (hAR); experiment: Aldose reductase assay, GSHNE reduction; conditions: up to 100 mM in the assay mixture; different substrate concentrations
Experimental: as §3
The human recombinant AR (hAR) was expressed and purified as previously described. […] The specific activity of purified hAR was 5.3 U/mg. The purified enzyme was stored at −80 °C in a 10 mM sodium phosphate buffer pH 7.0 containing 2 mM DTT and 30% (w/v) glycerol. Before use, the enzyme was extensively dialysed against a 10 mM sodium phosphate buffer pH 7.0.
The protein concentration was determined according to Bradford[35], using BSA as a standard protein. HNE was prepared as previously described. […] The residual GSH was determined as previously described.

[4] = biological target: T1, human recombinant AR (hAR); experiment: Aldose reductase assay, GAL reduction
Experimental: as §1, §2

[5] = DMSO 40 mM, apparent, ESI complex
[6] = DMSO 100 mM, apparent, ESI complex
[7] = DMSO 200 mM, apparent, ESI complex
[8] = No DMSO, dissociation constant of ESI complex

SMILES	Inhibition model [1]	Inhibition model [2]	effect on enzyme activity with GSHNE as substrate [3]	effect on the reduction of GAL catalysed by AR [4]	Ki ([1]; DMSO 40 mM, apparent) [µM]	Ki′ [1, 5] [µM]	Ki ([1]; DMSO 100 mM, apparent) [µM]	Ki′ [1, 6] [µM]	Ki ([1]; DMSO 200 mM, apparent) [µM]	Ki′ [1, 7] [µM]	Ki ([1]; No DMSO) [µM]	Ki′ [1, 8] [µM]	Inhibition model ([1]; listed as rutin)	Ki′ [2, 5] [µM]	Ki′ [2, 6] [µM]	Ki′ [2, 7] [µM]	Ki′ [2, 8] [µM]	Inhibition model ([2]; listed as rutin)	inhibition of AR activity ([1]; 0.7% (v/v) (approximately 0.17 M), L-idose 0.4–4 mM)	inhibition of AR activity ([2]; 0.7% (v/v) (approximately 0.17 M), HNE 40–110 µM)
C[S+](C)[O-] [DMSO, dimethyl sulfoxide]	competitive inhibition	mixed type of inhibition	no effect of interference on the enzyme activity	no effect	–	–	–	–	–	–	–	–	–	–	–	–	–	–	–	–
C[C@@H]1O[C@@H](OC[C@H]2O[C@@H](Oc3c(-c4ccc(O)c(O)c4)oc4cc(O)cc(O)c4c3=O)[C@H](O)[C@@H](O)[C@@H]2O)[C@H](O)[C@H](O)[C@H]1O [Rutin, rutin]	Mixed	Uncompetitive	–	–	20.3 ± 1.1	7.6 ± 1.2	24.8 ± 3.8	11.7 ± 0.5	45.6 ± 5.5	12.7 ± 2.0	17.8 ± 3	9.3 ± 1.1	mixed inhibitors	10.5 ± 2.0	12.8 ± 1.9	16.5 ± 1.9	9.2 ± 0.9	uncompetitive inhibitors	–	–
O=C(CCc1ccc(O)cc1)c1c(O)cc(O)cc1O [Phloretin, phloretin]	Mixed	Mixed	–	–	–	62.9 ± 2.3	–	50.3 ± 4.8	–	60.9 ± 2.1	–	52.5 ± 3.8	–	64.7 ± 1.4	73.4 ± 7.5	99.5 ± 7.3	56.5 ± 4.5	–	–	–
COc1ccc(CCC(=O)c2c(O)cc(O[C@@H]3O[C@H](CO)[C@@H](O)[C@H](O)[C@H]3O[C@@H]3O[C@@H](C)[C@H](O)[C@@H](O)[C@H]3O)cc2O)cc1O [NHDC, neohesperidin dihydrochalcone]	mixed inhibitors	uncompetitive inhibitors	–	–	114 ± 15	286 ± 53	125 ± 16	230 ± 35	194 ± 17	283 ± 2	93 ± 17	292 ± 17	–	134 ± 11	150 ± 22	199 ± 6	122 ± 19	–	–	–
CO [methanol]	–	–	–	–	–	–	–	–	–	–	–	–	–	–	–	–	–	–	less than 5%	less than 5%
